Patent publication US7786141B2 (Vertex Pharmaceuticals Incorporated, priority 2004, dated 2010)
Where two headings read alike, the source gives them in different places.

Legend:
[1] = biological target: T1, M1 muscarinic receptor (Homo sapiens, UniProt P11229); assay: Functional mobilization of intracellular calcium (FLIPR) in M1-CHO cells; format: cell-based
T1 construct: expressed in transfected cells; host or cells: CHO (M1-CHO)
T1 sequence (P11229 1-460): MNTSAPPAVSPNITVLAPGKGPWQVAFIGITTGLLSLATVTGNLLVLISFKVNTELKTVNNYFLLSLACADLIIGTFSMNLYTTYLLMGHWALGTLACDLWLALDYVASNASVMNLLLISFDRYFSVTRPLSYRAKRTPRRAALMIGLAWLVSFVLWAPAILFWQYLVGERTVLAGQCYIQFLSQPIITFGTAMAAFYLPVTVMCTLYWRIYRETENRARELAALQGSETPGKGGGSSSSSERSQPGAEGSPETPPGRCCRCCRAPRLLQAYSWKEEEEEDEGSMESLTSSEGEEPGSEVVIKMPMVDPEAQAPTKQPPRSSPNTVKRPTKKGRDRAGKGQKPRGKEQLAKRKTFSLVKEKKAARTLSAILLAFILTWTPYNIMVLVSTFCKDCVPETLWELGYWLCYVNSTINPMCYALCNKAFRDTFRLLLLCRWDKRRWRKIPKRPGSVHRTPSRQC
In short: (§1)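 Intracellular calcium rise is measured by FLIPR fluorescence over 60 sec in CHO cells carrying human M1 or M4 receptors. Compounds are tested alone as agonists, or pre-incubated 15 min (or co-applied) ahead of carbachol at its EC80 to detect inhibition.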

[2] = biological target: T2, M4 muscarinic receptor (Homo sapiens, UniProt P08173); assay: Functional mobilization of intracellular calcium (FLIPR) in M4-CHO cells; format: cell-based
T2 construct: expressed in transfected cells; host or cells: CHO (M4-CHO)
T2 sequence (P08173 1-479): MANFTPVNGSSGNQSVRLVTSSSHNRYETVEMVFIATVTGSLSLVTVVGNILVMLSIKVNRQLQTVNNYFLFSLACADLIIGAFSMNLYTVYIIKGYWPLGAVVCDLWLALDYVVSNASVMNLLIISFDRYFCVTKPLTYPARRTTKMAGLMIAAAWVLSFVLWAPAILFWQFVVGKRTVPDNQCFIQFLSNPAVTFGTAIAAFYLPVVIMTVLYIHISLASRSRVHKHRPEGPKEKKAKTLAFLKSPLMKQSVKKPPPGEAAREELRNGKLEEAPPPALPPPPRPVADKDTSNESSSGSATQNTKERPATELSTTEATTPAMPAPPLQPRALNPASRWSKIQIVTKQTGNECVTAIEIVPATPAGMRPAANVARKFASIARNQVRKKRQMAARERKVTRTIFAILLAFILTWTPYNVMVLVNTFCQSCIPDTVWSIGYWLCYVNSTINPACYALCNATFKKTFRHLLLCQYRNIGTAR
In short: as §1

[3] = M1 receptor, calcium mobilization
[4] = M4 receptor, calcium mobilization
[5] = Table 4, 100% efficacy is the maximum response obtained with the Carbachol control
[6] = Table 4, modulating M1 receptor
[7] = Table 4, modulating M4 receptor
[8] = M1 receptor, calcium mobilization, read-out: M1 Efficacy
[9] = M4 receptor, calcium mobilization, read-out: M4 Efficacy
[10] = Table 4, M1 receptor, calcium mobilization (FLIPR)
[11] = Table 4, M4 receptor, calcium mobilization (FLIPR)
[12] = 100% efficacy is the maximum response obtained with the Carbachol control, Table 5
[13] = CHO cells expressing M1, calcium mobilization, Table 5
[14] = CHO cells expressing M4, calcium mobilization, Table 5

SMILES | M1 Activity [1, 3] | M4 Activity [2, 4] | Emax [1, 5] [%] | Emax [2, 5] [%] | Emax [1, 8] [%] | Emax [2, 9] [%] | other results
CC(=O)NC1CC2(CCN(CC3CC4C=CC3C4)CC2)c2ccccc21 (centres unmarked) [compound 305] | x (activity was measured to be greater than 1.0 μM) | x (activity was measured to be greater than 1.0 μM) |  |  |  |  | M1 Efficacy [1, 3]: x (efficacy was calculated to be less than 65%); M4 Efficacy [2, 4]: x (efficacy was calculated to be less than 65%)
CC(=O)N[C@H]1CCC2(CCN(C[C@@H]3C[C@H]4C=C[C@H]3C4)CC2)c2ccccc21 [compound 447] |  |  | 25 to 100 | 25 to 100 |  |  | M1 Activity [1, 6]: xxx (activity was measured to be less than 2.0 μM); M4 Activity [2, 7]: xxx (activity was measured to be less than 2.0 μM)
CCOC(=O)N1CCC(N2CCC3(CC2)CN(C(=O)C2CCC2)c2ccc(F)cc23)CC1 [compound 254] | x (activity was measured to be greater than 1.0 μM) | x (activity was measured to be greater than 1.0 μM) |  |  | 65 to 85 | 65 to 85 | 
Cc1ccc2c(c1)C1(CCN(C3CC4CCC3C4)CC1)CN2C(=O)c1ccno1 (centres unmarked) [compound 292] | xx (activity was measured to be between 0.1 μM and 1.0 μM) | x (activity was measured to be greater than 1.0 μM) |  |  | 65 to 85 | 65 to 85 | 
CN(C)C(=O)N1CC2(CCN(C3CCN(C(=O)c4ccsc4)CC3)CC2)c2cc(F)ccc21 [compound 812] |  |  | 25 to 100 | < 25 |  |  | M1 Activity [1, 10]: xx (activity was measured to be between 2.0 μM and 5.0 μM); M4 Activity [2, 11]: x (activity was measured to be greater than 5.0 μM)
CN(C)C(=O)N1CC2(CCN(C3CCCN(C(=O)OCCF)CC3)CC2)c2cc(F)ccc21 (centres unmarked) [compound 772] |  |  | 25 to 100 | 25 to 100 |  |  | M1 Activity [1, 6]: xxx (activity was measured to be less than 2.0 μM); M4 Activity [2, 7]: xxx (activity was measured to be less than 2.0 μM)
CCOC(=O)N1CCC(CN2CCC3(CC2)CN(C(C)=O)c2ccc(F)cc23)CC1 [compound 60] | xx (activity was measured to be between 0.1 μM and 1.0 μM) | x (activity was measured to be greater than 1.0 μM) |  |  | 65 to 85 | 65 to 85 | 
Clc1ccc2c(c1)C1(CCN(C3CCOCC3)CC1)CO2 [compound 257] | x (activity was measured to be greater than 1.0 μM) | x (activity was measured to be greater than 1.0 μM) |  |  | > 85 | < 65 | 
CN(C)C(=O)N1CC2(CCN(C3CCN(c4ncccn4)CC3)CC2)c2cc(F)ccc21 [compound 1032] |  |  |  |  |  |  | Emax [1, 12]: 25 to 100%; EC50 [1, 13]: 2000 to 10000 nM; Emax [2, 12]: 25 to 100%; EC50 [2, 14]: < 2000 nM
CCOC(=O)N1CCC(N2CCC3(CC2)CN(C(C)=O)c2c(-c4cccc(OC)c4)cccc23)CC1 [compound 467] |  |  | 25 to 100 | 25 to 100 |  |  | M1 Activity [1, 6]: xx (activity was measured to be between 2.0 μM and 5.0 μM); M4 Activity [2, 7]: xx (activity was measured to be between 2.0 μM and 5.0 μM)
CCOC(=O)N1CC2(CCN(C3CC4CCC3C4)CC2)c2cc(C)ccc21 (centres unmarked) [compound 902] |  |  | 25 to 100 | < 25 |  |  | M1 Activity [1, 10]: x (activity was measured to be greater than 5.0 μM); M4 Activity [2, 11]: x (activity was measured to be greater than 5.0 μM)
CCOC(=O)N1CCC(N2CCC3(CC2)CN(C(=O)c2ccc(OC(F)(F)F)cc2)c2ccc(F)cc23)CC1 [compound 66] | xxx (activity was measured to be less than 0.1 μM) | xxx (activity was measured to be less than 0.1 μM) |  |  | > 85 | > 85 | 
O=C(N[C@H]1CCC2(CCN(C3CCCCCC3)CC2)c2ccccc21)C1CC1 [compound 663] |  |  | 25 to 100 | 25 to 100 |  |  | M1 Activity [1, 6]: xxx (activity was measured to be less than 2.0 μM); M4 Activity [2, 7]: xxx (activity was measured to be less than 2.0 μM)
CCCC#CCOC(=O)N1CC[C@H](CN2CCC3(CC2)CN(C(=O)N(C)C)c2ccc(F)cc23)C1 [compound 981] |  |  | 25 to 100 | 25 to 100 |  |  | M1 Activity [1, 10]: xxx (activity was measured to be less than 2.0 μM); M4 Activity [2, 11]: xxx (activity was measured to be less than 2.0 μM)
O=C(N[C@H]1CC2(CCN(C3CCCCC3)CC2)c2ccccc21)C1CC1 [compound 779] |  |  | 25 to 100 | < 25 |  |  | M1 Activity [1, 6]: xx (activity was measured to be between 2.0 μM and 5.0 μM); M4 Activity [2, 7]: xxx (activity was measured to be less than 2.0 μM)
CCOC(=O)N1CCC(N2CCC3(CC2)CN(CCOC)c2ccc(F)cc23)CC1 [compound 391] |  |  |  |  |  |  | EC50 ([1]; M1-CHO cells, calcium mobilization (FLIPR)): 100 to 1000 nM; Emax ([1]; M1-CHO cells, calcium mobilization (FLIPR), read-out: M1 Efficacy): < 65%; EC50 ([2]; M4-CHO cells, calcium mobilization (FLIPR)): > 1000 nM; Emax ([2]; M4-CHO cells, calcium mobilization (FLIPR), read-out: M4 Efficacy): < 65%
CC(=O)N1CC2(CCN(C3CCC3)CC2)c2cc(F)ccc21 [compound 916] |  |  | < 25 | < 25 |  |  | M1 Activity [1, 10]: x (activity was measured to be greater than 5.0 μM); M4 Activity [2, 11]: x (activity was measured to be greater than 5.0 μM)
CCCOC(=O)N1C2CCC1CC(N1CCC3(CC1)COc1ccc(F)cc13)C2 (centres unmarked) [compound 283] | xx (activity was measured to be between 0.1 μM and 1.0 μM) | x (activity was measured to be greater than 1.0 μM) |  |  | 65 to 85 | 65 to 85 | 
CCOC(=O)N1CCC(N2CCC3(CC2)CN(C(C)=O)c2ccc(-c4ccc(C)cc4)cc23)CC1 [compound 58] | xxx (activity was measured to be less than 0.1 μM) | xx (activity was measured to be between 0.1 μM and 1.0 μM) |  |  | 65 to 85 | 65 to 85 | 
COc1cc2c(cc1OC)C1(CCN(C3CCCCC3)CC1)C[C@@H]2NC(C)=O [compound 521] |  |  | < 25 | < 25 |  |  | M1 Activity [1, 6]: x (activity was measured to be greater than 5.0 μM); M4 Activity [2, 7]: x (activity was measured to be greater than 5.0 μM)
CCOC(=O)N1CCC(N2CCC3(CC2)CN(C(=O)c2ccccn2)c2ccc(F)cc23)CC1 [compound 331] | xx (activity was measured to be between 0.1 μM and 1.0 μM) | x (activity was measured to be greater than 1.0 μM) |  |  | < 65 | < 65 | 
CC=CCOC(=O)N1C2CCC1CC(N1CCC3(CC1)CN(C(=O)N(C)C)c1ccc(F)cc13)C2 (centres unmarked) [compound 200] | xx (activity was measured to be between 0.1 μM and 1.0 μM) | x (activity was measured to be greater than 1.0 μM) |  |  | 65 to 85 | < 65 | 
CN(C)C(=O)N1CC2(CCN(C3CCN(c4nccs4)CC3)CC2)c2cc(F)ccc21 [compound 1034] |  |  |  |  |  |  | Emax [1, 12]: 25 to 100%; EC50 [1, 13]: < 2000 nM; Emax [2, 12]: 25 to 100%; EC50 [2, 14]: < 2000 nM
